Data taken from patent US8193156B1, “Dipeptides incorporating selenoamino acids with enhanced bioavailability—synthesis, pharmaceutical and cosmeceutical applications thereof” (Sami Labs Ltd, priority 2006, dated 2012).

Experiments:
[1] = Aqueous solubility measurements; assay type: physicochemical; settings: for Aqueous solubility: in water
Description: Aqueous solubility measurements were done on L-Se-methylselenocysteine and γ-L-glutamyl-L-Se-methylselenocysteine; The solubility of L-Se-methylselenocysteine was ca. 10% with dissolution occurring in two hours in water.

Row | Compound | melting point | Time for dissolution in water [1] | Aqueous solubility [1]
1 | C[Se]CC[C@H](NC(=O)CC[C@H](N)C(=O)O)C(=O)O | 192 to 194 °C | – | –
2 | C[Se]C[C@H](N)C(=O)O [L-Se-methylselenocysteine, reference compound] | – | two hours | ca. 10%
3 | C[Se]C[C@H](NC(=O)CC[C@H](N)C(=O)O)C(=O)O [γ-L-glutamyl-L-Se-methylselenocysteine, γ-L-glutamyl-Se-methyl-L-selenocysteine] | 159 to 161 °C | thirty minutes | ca. 25%
